Data reported in patent publication US7858610B2, “Preventive and/or remedy for lower urinary tract diseases containing EP4 agonist” (Ono Pharmaceutical Co., Ltd., priority 2004, dated 2010).

Tested on: model of cyclophosphamide-induced cystitis in rats
Experiment: Cystometry in the model of cyclophosphamide-induced cystitis in rats
Format: in vivo, rat
Details: for decrease of the bladder compliance induced by cyclophosphamide: bladder capacity divided by voiding pressure
Protocol: Female Wistar rats (around 9 weeks old) were anesthetized with sodium pentobarbital (40 mg/kg, i.p.). After median incision of the hypogastrium, the top of bladder was incised. A catheter for use in cystometry was filled with physiological saline and then was inserted through the top hole into bladder. The other end of the catheter was fixed subcutaneously in the dorsal part. 0.1 mL Vicillin S500 (Meiji Seika Kaisha, Ltd.; 100 mg titers/mL distilled water/rat) was injected into the buttock muscle. Then, the rats were fed for 6 days or more, and subsequently subjected to the following treatment.
The model of cyclophosphamide-induced cystitis was prepared by a single dose intraperitoneal administration of cyclophosphamide (Sigma; 150 mg/kg). Distilled water is administered intraperitoneally for the control group.
The test compound of each dose was administrated orally 30 minutes before the treatment of cyclophosphamide, and 4, 20, 30 and 45 hours after the treatment of cyclophosphamide. The solvent group (hereinafter, it may be referred to as vehicle.) was administrated distilled water which is the solvent of the test compound. The following cystometry was carried out 48 hours after the treatment of cyclophosphamide.
The rats anesthetized with diethyl ether were kept in ballman cage. The tip of the indwelling catheter for use in measurement of voiding pressure was connected through a three-way valve. Another end of the three-way valve was connected to a pressure transducer, while the other end was connected to a syringe for intravesical injection which was mounted on an infusion pump. A signal of voiding pressure was recorded using an amp recorder of strain pressure
After awaking from anesthesia, saline was injected into the bladder of the rats at a rate of 2.85 mL/h. After the pattern of the micturition reflex was stable, the residual urine was removed. Afterwards, saline was injected again into the bladder at a rate of 2.85 mL/h, and the voiding pressure and the urination interval were measured. The bladder capacity was calculated from the urination interval. The bladder compliance was calculated by dividing the bladder capacity by the voiding pressure.

[1] = 1000 μg/kg orally, cyclophosphamide-induced cystitis, female Wistar rats

Molecule	decrease of the bladder capacity induced by cyclophosphamide [1]	decrease of the bladder compliance induced by cyclophosphamide [1]	decrease of the bladder compliance induced by cyclophosphamide (300 μg/kg orally, 30 min before and 4, 20, 30 and 45 h after cyclophosphamide (150 mg/kg i.p.), cystometry 48 h after, FIG. 2)	decrease of the bladder capacity induced by cyclophosphamide (300 μg/kg orally, 30 min before and 4, 20, 30 and 45 h after cyclophosphamide (150 mg/kg i.p.), cystometry 48 h after, female Wistar rats, FIG. 1)	voiding pressure (oral administration, regardless of the presence of the cyclophosphamide treatment, FIG. 3)
methyl 4-{[2-((1R,2R,3R)-3-hydroxy-2-{(1E,3S)-3-hydroxy-4-[3-(methoxymethyl)phenyl]but-1-enyl}-5-oxocyclopenty)ethyl]sulfanyl}butanoate α-cyclodextrin clathrate [compound 2]	improved	improved	–	–	–
O=C(O)CCCSCCN1C(=O)CC[C@@H]1/C=C/[C@@H](O)Cc1ccc(F)cc1 [compound 1, 4-[(2-{(2R)-2-[(1E,3S)-4-(4-fluorophenyl)-3-hydroxybut-1-enyl]-5-oxopyrrolidin-1-yl}ethyl)sulfanyl]butanoic acid]	–	–	improved	improved	decreased
